A word on the AC50: it is the midpoint of the concentration-response curve, whichever way the signal moves. Low readings indicate activity at low concentration, high ones activity only at high concentration.

Some results are limits rather than exact numbers.

This passage reports AC50 results from ChEMBL document CHEMBL5291721, “A preclinical secondary pharmacology resource illuminates target-adverse drug reaction associations of marketed drugs” (Nat Commun, 2023).

The target in test [1] is T1, Alpha-2A adrenergic receptor (Homo sapiens, UniProt P08913).
T1 sequence (P08913 whole entry): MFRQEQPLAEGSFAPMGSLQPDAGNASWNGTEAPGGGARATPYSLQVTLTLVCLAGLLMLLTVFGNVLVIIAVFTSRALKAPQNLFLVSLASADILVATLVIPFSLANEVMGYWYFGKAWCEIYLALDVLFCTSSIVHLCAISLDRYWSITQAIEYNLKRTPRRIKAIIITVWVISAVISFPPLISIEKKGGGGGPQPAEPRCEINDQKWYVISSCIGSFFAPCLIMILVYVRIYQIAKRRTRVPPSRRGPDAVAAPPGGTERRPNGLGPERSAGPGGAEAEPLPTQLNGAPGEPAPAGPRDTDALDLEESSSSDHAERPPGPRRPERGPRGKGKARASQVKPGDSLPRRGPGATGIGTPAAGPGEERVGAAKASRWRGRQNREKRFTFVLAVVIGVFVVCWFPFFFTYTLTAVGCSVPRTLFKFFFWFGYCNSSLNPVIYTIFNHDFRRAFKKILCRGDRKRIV

Test [2] deals with Beta-1 adrenergic receptor (Homo sapiens, UniProt P08588). It counts as functional.
For test [3], the target named is Vasopressin V2 receptor (Homo sapiens, UniProt P30518).
Vasopressin V2 receptor, sequence (P30518 whole entry): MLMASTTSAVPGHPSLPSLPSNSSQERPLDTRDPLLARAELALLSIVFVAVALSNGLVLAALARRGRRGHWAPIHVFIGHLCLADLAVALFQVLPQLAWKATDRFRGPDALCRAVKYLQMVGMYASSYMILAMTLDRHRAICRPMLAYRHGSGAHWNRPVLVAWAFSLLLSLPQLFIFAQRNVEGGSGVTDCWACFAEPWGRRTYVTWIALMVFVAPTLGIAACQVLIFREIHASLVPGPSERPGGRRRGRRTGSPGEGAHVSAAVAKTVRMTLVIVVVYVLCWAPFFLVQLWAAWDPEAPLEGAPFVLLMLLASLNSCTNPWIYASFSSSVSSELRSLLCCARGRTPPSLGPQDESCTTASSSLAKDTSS
Test [4] has as its target T2, Cholecystokinin receptor type A (Homo sapiens, UniProt P32238).
T2 sequence (P32238 whole entry): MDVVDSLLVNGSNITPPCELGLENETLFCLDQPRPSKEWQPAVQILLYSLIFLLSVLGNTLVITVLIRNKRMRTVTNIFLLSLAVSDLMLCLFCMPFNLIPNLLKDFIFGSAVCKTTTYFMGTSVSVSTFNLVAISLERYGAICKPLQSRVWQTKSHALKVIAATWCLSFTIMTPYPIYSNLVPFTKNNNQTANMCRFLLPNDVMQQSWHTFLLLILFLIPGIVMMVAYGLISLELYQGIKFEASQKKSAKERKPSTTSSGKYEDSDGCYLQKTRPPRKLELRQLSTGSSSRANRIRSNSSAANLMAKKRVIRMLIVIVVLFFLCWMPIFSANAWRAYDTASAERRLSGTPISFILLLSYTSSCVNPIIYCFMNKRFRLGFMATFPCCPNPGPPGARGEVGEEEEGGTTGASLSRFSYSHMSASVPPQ

The target of test [5] is Cannabinoid receptor 1 (Homo sapiens, UniProt P21554). It counts as functional, cell-based.
Cannabinoid receptor 1, sequence (P21554 whole entry): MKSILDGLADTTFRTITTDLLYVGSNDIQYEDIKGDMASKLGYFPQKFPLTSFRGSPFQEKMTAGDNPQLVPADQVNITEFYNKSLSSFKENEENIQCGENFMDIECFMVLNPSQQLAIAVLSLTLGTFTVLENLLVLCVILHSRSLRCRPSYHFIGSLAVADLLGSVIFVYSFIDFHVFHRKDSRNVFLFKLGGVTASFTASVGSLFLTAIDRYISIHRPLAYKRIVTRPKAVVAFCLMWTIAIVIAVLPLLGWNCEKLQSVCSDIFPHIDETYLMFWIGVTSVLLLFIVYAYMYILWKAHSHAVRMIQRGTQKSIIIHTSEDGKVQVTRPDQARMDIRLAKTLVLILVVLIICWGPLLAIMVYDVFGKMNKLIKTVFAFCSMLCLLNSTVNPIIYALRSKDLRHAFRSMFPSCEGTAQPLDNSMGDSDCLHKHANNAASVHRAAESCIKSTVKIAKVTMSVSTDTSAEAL
Test [6] concerns the target 5-hydroxytryptamine receptor 2B (Homo sapiens, UniProt P41595). It counts as functional, cell-based.
Test [7] has as its target Voltage-gated inwardly rectifying potassium channel KCNH2 (Homo sapiens, UniProt Q12809). It counts as functional.
The target in test [8] is Vascular endothelial growth factor receptor 2 (Homo sapiens, UniProt P35968). The test is classed as functional.
Vascular endothelial growth factor receptor 2, sequence (P35968 whole entry): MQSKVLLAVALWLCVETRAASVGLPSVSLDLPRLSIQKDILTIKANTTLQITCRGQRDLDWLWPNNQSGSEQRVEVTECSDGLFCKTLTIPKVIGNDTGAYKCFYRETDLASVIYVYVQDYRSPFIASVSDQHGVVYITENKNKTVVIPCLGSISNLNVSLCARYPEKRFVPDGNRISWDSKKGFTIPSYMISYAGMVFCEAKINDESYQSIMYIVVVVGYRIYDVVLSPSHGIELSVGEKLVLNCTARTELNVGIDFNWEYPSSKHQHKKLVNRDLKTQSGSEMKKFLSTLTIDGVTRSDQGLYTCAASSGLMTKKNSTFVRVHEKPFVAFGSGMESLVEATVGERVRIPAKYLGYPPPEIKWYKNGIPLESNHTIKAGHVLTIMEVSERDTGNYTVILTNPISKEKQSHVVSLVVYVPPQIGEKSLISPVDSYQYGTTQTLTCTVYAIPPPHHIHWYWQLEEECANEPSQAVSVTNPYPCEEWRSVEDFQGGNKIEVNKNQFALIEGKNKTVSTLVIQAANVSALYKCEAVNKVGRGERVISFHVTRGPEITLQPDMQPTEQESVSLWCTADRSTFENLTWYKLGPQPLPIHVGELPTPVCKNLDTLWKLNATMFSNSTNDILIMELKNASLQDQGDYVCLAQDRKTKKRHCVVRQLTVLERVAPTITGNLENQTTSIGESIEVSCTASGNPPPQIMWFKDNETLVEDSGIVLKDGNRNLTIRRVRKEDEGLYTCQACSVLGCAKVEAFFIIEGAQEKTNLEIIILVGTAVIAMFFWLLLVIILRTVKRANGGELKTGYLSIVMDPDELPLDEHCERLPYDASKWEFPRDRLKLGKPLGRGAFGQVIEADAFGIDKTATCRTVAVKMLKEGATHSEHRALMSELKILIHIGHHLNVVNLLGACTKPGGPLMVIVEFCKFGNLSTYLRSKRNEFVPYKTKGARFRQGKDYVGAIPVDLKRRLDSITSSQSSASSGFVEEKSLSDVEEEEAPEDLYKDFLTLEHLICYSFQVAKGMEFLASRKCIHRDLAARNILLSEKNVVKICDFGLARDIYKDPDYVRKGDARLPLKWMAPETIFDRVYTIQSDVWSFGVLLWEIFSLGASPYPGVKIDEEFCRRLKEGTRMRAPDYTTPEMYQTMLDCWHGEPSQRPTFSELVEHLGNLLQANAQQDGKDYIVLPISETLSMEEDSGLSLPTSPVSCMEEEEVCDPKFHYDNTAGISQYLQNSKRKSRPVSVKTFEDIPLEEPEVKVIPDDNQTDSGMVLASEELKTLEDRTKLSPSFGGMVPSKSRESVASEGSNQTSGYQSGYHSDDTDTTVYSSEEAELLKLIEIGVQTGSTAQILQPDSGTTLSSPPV
Test [9] concerns the target Mu-type opioid receptor (Homo sapiens, UniProt P35372).
The target of test [10] is T3, Progesterone receptor (Homo sapiens, UniProt P06401).
T3 sequence (P06401 whole entry): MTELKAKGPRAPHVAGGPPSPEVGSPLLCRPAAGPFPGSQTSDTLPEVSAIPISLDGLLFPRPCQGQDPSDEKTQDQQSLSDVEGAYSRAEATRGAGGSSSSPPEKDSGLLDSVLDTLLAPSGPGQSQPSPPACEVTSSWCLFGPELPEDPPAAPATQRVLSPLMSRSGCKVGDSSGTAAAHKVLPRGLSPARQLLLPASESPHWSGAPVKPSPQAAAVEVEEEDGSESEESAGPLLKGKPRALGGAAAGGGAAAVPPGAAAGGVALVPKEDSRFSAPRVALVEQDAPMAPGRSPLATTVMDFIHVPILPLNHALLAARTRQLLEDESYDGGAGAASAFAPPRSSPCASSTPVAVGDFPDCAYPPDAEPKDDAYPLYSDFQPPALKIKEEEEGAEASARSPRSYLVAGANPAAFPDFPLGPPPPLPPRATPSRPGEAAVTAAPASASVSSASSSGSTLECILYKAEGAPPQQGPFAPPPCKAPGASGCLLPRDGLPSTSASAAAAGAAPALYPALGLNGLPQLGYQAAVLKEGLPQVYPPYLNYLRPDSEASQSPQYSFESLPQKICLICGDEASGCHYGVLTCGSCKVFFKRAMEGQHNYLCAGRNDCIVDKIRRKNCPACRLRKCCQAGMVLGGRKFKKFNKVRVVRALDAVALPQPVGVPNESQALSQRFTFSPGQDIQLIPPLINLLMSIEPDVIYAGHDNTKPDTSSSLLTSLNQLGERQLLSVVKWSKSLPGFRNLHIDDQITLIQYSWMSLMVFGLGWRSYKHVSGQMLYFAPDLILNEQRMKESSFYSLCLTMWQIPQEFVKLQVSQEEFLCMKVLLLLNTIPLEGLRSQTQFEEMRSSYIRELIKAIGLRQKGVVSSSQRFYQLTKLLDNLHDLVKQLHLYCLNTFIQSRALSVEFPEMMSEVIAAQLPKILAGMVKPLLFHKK

The target in test [11] is T4, Thromboxane A2 receptor (Homo sapiens, UniProt P21731).
T4 sequence (P21731 whole entry): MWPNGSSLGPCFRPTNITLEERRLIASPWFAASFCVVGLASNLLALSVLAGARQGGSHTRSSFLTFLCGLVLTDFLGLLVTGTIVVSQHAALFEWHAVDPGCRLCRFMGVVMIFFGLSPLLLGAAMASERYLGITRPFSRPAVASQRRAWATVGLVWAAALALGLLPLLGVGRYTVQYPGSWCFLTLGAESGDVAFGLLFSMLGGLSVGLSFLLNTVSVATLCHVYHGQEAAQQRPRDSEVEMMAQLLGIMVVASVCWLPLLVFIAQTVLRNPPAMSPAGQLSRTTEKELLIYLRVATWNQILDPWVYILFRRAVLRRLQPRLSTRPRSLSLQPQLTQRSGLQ
The test is classed as functional, cell-based.

Test [12] deals with Sodium-dependent serotonin transporter (Homo sapiens, UniProt P31645).
Sodium-dependent serotonin transporter, sequence (P31645 whole entry): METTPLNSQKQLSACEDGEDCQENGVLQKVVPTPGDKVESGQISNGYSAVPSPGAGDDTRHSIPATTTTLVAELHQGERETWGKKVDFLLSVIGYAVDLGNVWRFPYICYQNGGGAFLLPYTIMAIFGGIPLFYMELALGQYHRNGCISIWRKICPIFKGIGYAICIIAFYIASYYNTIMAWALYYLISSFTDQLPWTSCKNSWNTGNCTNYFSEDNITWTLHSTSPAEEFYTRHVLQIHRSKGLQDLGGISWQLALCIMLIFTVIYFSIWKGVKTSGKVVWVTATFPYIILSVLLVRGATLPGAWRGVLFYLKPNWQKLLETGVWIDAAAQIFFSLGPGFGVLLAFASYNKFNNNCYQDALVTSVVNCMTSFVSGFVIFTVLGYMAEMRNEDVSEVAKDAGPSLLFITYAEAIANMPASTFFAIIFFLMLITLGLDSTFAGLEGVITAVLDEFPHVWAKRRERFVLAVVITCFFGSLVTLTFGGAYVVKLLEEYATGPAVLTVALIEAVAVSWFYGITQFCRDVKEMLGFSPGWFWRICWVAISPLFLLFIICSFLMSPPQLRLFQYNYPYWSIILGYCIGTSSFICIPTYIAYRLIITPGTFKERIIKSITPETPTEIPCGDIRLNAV
Also: assay procedure not described here.

Mu-type opioid receptor, sequence (P35372 whole entry): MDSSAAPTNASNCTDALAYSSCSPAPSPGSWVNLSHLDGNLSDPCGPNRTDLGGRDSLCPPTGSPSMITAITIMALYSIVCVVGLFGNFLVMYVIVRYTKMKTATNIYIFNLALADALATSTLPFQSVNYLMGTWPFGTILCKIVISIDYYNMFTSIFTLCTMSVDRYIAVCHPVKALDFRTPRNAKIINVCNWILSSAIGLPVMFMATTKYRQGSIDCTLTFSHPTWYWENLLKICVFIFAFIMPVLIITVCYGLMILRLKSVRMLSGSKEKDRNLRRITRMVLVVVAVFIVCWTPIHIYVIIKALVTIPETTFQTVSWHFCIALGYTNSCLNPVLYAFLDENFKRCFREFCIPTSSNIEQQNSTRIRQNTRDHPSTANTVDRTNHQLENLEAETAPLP
5-hydroxytryptamine receptor 2B, sequence (P41595 whole entry): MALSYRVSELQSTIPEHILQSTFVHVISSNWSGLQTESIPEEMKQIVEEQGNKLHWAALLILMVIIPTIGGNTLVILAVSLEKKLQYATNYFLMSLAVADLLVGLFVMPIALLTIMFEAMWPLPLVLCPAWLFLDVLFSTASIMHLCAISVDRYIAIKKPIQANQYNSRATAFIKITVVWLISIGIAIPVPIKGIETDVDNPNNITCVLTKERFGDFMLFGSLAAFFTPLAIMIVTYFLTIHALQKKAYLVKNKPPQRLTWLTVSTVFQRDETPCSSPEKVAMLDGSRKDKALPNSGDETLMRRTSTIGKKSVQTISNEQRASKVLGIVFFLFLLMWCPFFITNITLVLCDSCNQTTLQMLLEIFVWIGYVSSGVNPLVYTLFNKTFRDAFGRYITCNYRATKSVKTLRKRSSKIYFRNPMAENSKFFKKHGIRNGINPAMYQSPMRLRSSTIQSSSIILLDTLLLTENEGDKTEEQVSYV
Voltage-gated inwardly rectifying potassium channel KCNH2, sequence (Q12809 whole entry): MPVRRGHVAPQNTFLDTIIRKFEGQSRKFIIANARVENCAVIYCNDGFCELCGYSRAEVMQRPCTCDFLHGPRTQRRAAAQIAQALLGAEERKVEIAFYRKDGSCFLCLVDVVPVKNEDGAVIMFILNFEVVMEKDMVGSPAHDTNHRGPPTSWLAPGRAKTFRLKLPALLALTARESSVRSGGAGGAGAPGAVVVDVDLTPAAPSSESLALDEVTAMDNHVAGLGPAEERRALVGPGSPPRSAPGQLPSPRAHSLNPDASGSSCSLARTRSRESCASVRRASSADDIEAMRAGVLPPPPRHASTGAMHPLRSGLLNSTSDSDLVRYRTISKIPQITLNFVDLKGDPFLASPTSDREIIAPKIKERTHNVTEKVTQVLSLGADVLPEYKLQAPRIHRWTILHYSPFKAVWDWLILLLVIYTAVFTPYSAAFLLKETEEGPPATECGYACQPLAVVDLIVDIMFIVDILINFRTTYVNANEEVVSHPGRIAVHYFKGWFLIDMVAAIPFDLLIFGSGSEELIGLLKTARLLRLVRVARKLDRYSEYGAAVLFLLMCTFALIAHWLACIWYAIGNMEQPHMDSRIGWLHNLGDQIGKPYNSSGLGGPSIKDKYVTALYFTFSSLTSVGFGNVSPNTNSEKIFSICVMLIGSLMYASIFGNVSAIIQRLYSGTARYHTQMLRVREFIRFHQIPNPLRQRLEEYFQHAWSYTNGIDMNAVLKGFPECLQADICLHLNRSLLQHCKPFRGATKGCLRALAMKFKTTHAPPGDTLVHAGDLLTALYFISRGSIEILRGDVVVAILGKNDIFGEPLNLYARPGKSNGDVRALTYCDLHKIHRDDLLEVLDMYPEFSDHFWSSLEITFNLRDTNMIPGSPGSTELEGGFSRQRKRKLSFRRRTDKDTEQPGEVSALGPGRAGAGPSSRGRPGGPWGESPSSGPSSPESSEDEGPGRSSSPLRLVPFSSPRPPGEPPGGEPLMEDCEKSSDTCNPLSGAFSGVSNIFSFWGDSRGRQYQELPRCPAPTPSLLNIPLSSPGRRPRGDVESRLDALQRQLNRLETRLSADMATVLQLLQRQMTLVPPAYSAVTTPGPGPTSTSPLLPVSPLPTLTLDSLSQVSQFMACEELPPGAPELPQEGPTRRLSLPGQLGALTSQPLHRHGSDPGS

In the case of `CCCc1nc2c(C)cc(-c3nc4ccccc4n3C)cc2n1Cc1ccc(-c2ccccc2C(=O)O)cc1`, the AC50 in [1] is > 30 µM; in test [2] it was > 30 µM; in test [3], > 30 µM; in test [4], 2.43 µM; in test [5], > 30 µM; in [6] it was > 30 µM. For the same compound, the concentration at half-maximal activity (AC50) in [7] is > 30 µM; in test [8], > 10 µM; in test [9] it was 2.56 µM; in [10], > 30 µM; in test [11] it was 14.5 µM.

Take `CC(=O)NO` [ACETOHYDROXAMIC ACID]: the AC50 in test [1], in test [6], in test [9], in test [10], in test [12] and in test [11] was > 30 µM throughout.

`C[C@H]1CN(C[C@H](Cc2ccccc2)C(=O)NCC(=O)O)CC[C@@]1(C)c1cccc(O)c1` [ALVIMOPAN]: the AC50 in [1], in test [6], in [7], in test [8], in test [10] and in test [12] was > 30 µM throughout. Further, the AC50 in test [11] is > 30 µM.

Regarding `CC(C)NC(=N)NC(=N)Nc1ccc(Cl)c(Cl)c1` [CHLORPROGUANIL], the concentration at half-maximal activity (AC50) in test [1] was 5.59 µM; in [5] it was > 30 µM; in test [6], > 30 µM; in [7] it was 2.6 µM; in test [9], 11.2 µM; in [10], > 30 µM. Also, the concentration at half-maximal activity (AC50) in test [12] is 5.81 µM; in test [11], > 30 µM.

As for `C[N+](C)(C)CCOP(=O)(O)OP(=O)([O-])OC[C@H]1O[C@@H](n2ccc(N)nc2=O)[C@H](O)[C@@H]1O` [CITICOLINE], the AC50 in [1], in [5], in [6], in test [7], in test [9] and in test [10] was > 30 µM in each case. The half-maximal activity concentration (AC50) in [12] and in test [11] was > 30 µM each time.

Consider `O=C(O)Cc1ccccc1Nc1c(Cl)cccc1Cl` [DICLOFENAC], for which the half-maximal activity concentration (AC50) in test [1] was > 3 µM; in test [2], > 10 µM; in test [3], > 30 µM; in test [4], > 30 µM; in [5], > 30 µM; in [6], > 3 µM. Further, the concentration at half-maximal activity (AC50) is > 30 µM in test [7]; > 3 µM in test [8]; > 3 µM in test [9]; > 3 µM in [10]; > 3 µM in test [11].

`CN[C@@H]1[C@H](O[C@H]2[C@H](O[C@H]3[C@H](O)[C@@H](O)[C@H](NC(=N)N)[C@@H](O)[C@@H]3NC(=N)N)O[C@@H](C)[C@]2(O)CO)O[C@@H](CO)[C@H](O)[C@H]1O` [DIHYDROSTREPTOMYCIN]: the AC50 in test [1], in [6], in test [9], in test [10], in test [12] and in [11] was > 30 µM each time.

As to `CC[C@H]1OC(=O)[C@H](C)[C@@H](O[C@H]2C[C@@](C)(OC)[C@@H](O)[C@H](C)O2)[C@H](C)[C@@H](O[C@@H]2O[C@H](C)C[C@H](N(C)C)[C@H]2O)[C@](C)(O)C[C@@H](C)[C@@H]2N[C@@H](COCCOC)O[C@H]([C@H]2C)[C@]1(C)O` [DIRITHROMYCIN], the AC50 in [1], in test [6], in test [7], in test [9], in [10] and in [12] was > 30 µM throughout. Moreover, the AC50 in test [11] is > 30 µM.

Turning to `CCCCc1oc2ccc(NS(C)(=O)=O)cc2c1C(=O)c1ccc(OCCCN(CCCC)CCCC)cc1` [DRONEDARONE], the half-maximal activity concentration (AC50) in [1] was 13.4 µM; in test [6] it was > 30 µM; in test [9], 3.09 µM; in test [10], 0.64 µM; in test [12], 3.31 µM; in test [11], > 30 µM.

Take `O=C(O)Cc1ccccc1Oc1ccc(Cl)cc1Cl` [FENCLOFENAC]: the AC50 is > 30 µM in test [1]; > 10 µM in test [2]; > 30 µM in test [3]; > 30 µM in test [4]; > 30 µM in [5]; > 30 µM in test [6]. Besides, the concentration at half-maximal activity (AC50) in [7], in test [8], in test [9], in test [10] and in test [11] was > 30 µM in each case.

In the case of `CC(C)C(=O)Oc1ccc(CO)cc1[C@H](CCN(C(C)C)C(C)C)c1ccccc1` [FESOTERODINE], the AC50 in test [1], in test [6], in test [9], in [10], in test [12] and in [11] was > 30 µM in each case.

As for `Cc1ccc(C)c(OCCCC(C)(C)C(=O)O)c1` [GEMFIBROZIL], the AC50 in test [1] was > 30 µM; in test [2], > 10 µM; in [3], > 30 µM; in test [4], > 30 µM; in [5] it was > 30 µM; in [6], > 30 µM. In addition, the half-maximal activity concentration (AC50) in test [7], in [8], in [9], in [10] and in test [11] was > 30 µM in each case.

`C#C[C@]1(O)C=C[C@H]2[C@@H]3CCC4=CC(=O)CC[C@@H]4[C@H]3CC[C@@]21CC` [GESTODENE]: the AC50 in test [1] is > 30 µM; in test [6], > 30 µM; in test [9] it was 14.9 µM; in test [10] it was 0.003 µM; in test [12], 4.59 µM; in test [11], > 30 µM.

For `C[N+](C)(CCCCCC[N+](C)(C)C1c2ccccc2-c2ccccc21)C1c2ccccc2-c2ccccc21` [HEXAFLUORENIUM], the concentration at half-maximal activity (AC50) is 2.19 µM in test [1]; > 30 µM in test [6]; > 30 µM in test [8]; 1.03 µM in test [9]; > 30 µM in test [10]; 3.02 µM in test [12]. Besides, in test [11], the concentration at half-maximal activity (AC50) was > 30 µM.
